“Also recorded” adds a separate entry of the source. Where two headings read alike, the source gives them in different places.

The nature of data set [1]: Microsomal Stability Assay (Examples 6 and 8). The class given is in vitro ADME, mouse. The following applies: for half-life at 20 µM: CD-1, mouse, liver microsomes; for microsomal stability / half-life, in words: assessed over two hours. On the procedure: (§1) To a 96-well polypropylene plate was added phosphate buffer (182.2 μL, pH 7.4, 100 mM) followed by addition of NADPH-regenerating system solution A (10 μL), and NADPH regenerating system solution B (2 μL) (Corning Gentest 3P NADPH regenerating system solution A (#451220) and B (#451200)). A stock solution of analog (0.8 μL. 5 mM) or fer-1 (positive control) was added and the mixture was warmed to 37° C. for 5 min. Mouse microsomes (CD-1, 20 mg/mL, Life Technologies) (5 μL, thawed in 37° C. water bath before use) were added. The resulting reaction mixture was kept at 37° C. with gentle agitation for the duration of the experiment. At selected time points (0, 1, 5, 10, 20, 30, 60 and 120 min) aliquots (15 μL) were withdrawn from the plate and quenched upon addition to cold methanol (60 μL), containing an internal standard (5 μM) in a separate 96-well polypropylene plate. At the completion of the final time-point, the samples were centrifuged at 4,000 rpm for 5 min at 4° C. The supernatant (40 μL) was withdrawn and transferred to a sample vial with insert. The samples were analyzed by LC-MS. LC-MS analysis was performed on a platform comprising a Thermo Scientific Dionex Ultimate 3000 and a Bruker amaZon SL equipped with an electrospray ionization source controlled by Bruker Hystar 3.2. Chromatographic separation was performed by injecting 5 μL of the sample onto an Agilent Eclipse Plus C18 column (2.1×50 mm, 3.5 μm) maintained at 20° C. The flow rate was maintained at 400 μL/min. The initial flow conditions were 80% solvent A (water containing 0.1% acetic acid) and 20% solvent B (methanol containing 0.1% acetic acid). Solvent B was raised to 80% over 0.50 min by 1.50 min. Solvent B was raised to 100% by 5.00 min and held there for 3.25 min. […] All analogs were detected in positive mode as [M+H]*. The percent of compound remaining at each time-point was calculated as the ratio of the integrated compound peak over the internal standard peak and standardized to the t=0 time-point. Values were plotted in GraphPad Prism 9 and fit with a one phase decay.
as §1, with “and NADPH-regenerating” for “and NADPH regenerating”, “rpm (1872 g)” for “rpm”, “[M+H]*. […]” for “[M+H]*. The percent of compound remaining at each time-point was calculated as the ratio of the integrated compound peak over the internal standard peak and standardized to the t=0 time-point. Values were plotted in GraphPad Prism 9 and fit with a one phase decay.”

The subject of data set [2] is R6/2 Huntington's mouse model. Kind of data set: 30-day toxicity study in symptomatic R6/2 and wild type mice. The class given is in vivo. The following applies: for tolerability of chronic administration: 20 mg/kg daily for 30 days, IP and PO; for protection against body weight loss / deaths after 30 days: R6/2 mice; for deaths after 30 days: 20 mg/kg daily. How it is done: In order to assess whether ferrostatins can be used in a long-term efficacy, we performed a toxicity study with the three analogs to determine whether symptomatic R6/2 mice could tolerate chronic administration of analog. Use TH-4-55-2 as an example: symptomatic R6/2 mice of both sexes at ˜10 weeks of age were dosed daily with 20 mg/kg TH-4-55-2 via both IP and oral gavage for 30 days. Body weight was measured and recorded and the % change in body weight from the baseline calculated. Any mice that lost more than 20% of their body weight for three days were euthanized prior to the completion of the study.
Ferrostatin analogs were dissolved in 5% DMSO/95% of 1:1 [(65% v/v of 25% w/v 2-hydroxypropyl-β-cyclodextrin dissolved in 20% EtOH, 30% v/v Poly(ethylene glycol)-400, 5% v/v Tween 80):MilliQ water] to create a 2 mg/mL solution. The same formulation without analog was used as a vehicle control. The solution was sterilized using a […] Steriflip filter unit. C57BL/6 and R6/2 mice at ˜10 weeks of age, after onset of symptoms in R6/2 mice, were injected with ferrostatin analog or vehicle at a dose of 20 mg/kg daily for 30 days via IP and PO routes of administration. […] Mice were randomly assigned to each condition, weighed daily, the weight recorded, and the change in body weight compared to the baseline, pre-injection weight was calculated. Any mouse that lost more than 20% of its baseline body weight for three consecutive days was euthanized prior to the completion of the study. Injections occurred daily at the same time in the day to ensure consistency. Experimental blinding was achieved by separating the syringe preparation and the injection and data analysis components, with one researcher preparing the syringes and the other injecting the mice and analyzing the data. Unblinding occurred at the termination of the study after the completion of data analysis. Data were plotted and analyzed in Graph Pad Prism 9.0 with significance determined via Two Way ANOVA or Mixed-effects model with Tukey's test for multiple comparisons.
Symptomatic R6/2 and age-matched C57BL/6 wild type mice of both sexes at ˜10 weeks of age were dosed daily with 20 mg/kg of TH-4-55-2 via IP or PO for 30 days. Body weight was measured and recorded and the percent change in body weight from baseline calculated. Per IACUC guidelines, any mouse that lost more than 20% body weight for three days was euthanized prior to completion of the study.

Setting [3] is: pH 7.4, text, read-out: half-life in mouse liver microsomes.
Where [4] appears, read: pH 7.4, independent test I, read-out: t1/2 I.
The mark [5] stands for this setting: pH 7.4, independent test II, read-out: t1/2 II.
Setting [6] is: pH 7.4, independent test III, read-out: t1/2 III.

Regarding `CCOC(=O)c1ccc(NC2CCCCC2)c(N)c1` [Fer-1, Ferrostatin-1, reference compound], the half-life at 20 µM in data set [1] (setting [3]) is 0.04 h.

For the compound `Cc1noc(-c2ccc(NC3CCCCC3)c(NC3CCCCC3)c2)n1` [PHB4082, N1,N2-dicyclohexyl-4-(3-methyl-1,2,4-oxadiazol-5-yl)benzene-1,2-diamine], the “microsomal stability / half-life, in words” value in data set [1] is on record as “half-lives greater than two hours”.

Take `Cc1noc(-c2cnc(NC3CCCCC3)c(NC3CCCCC3)c2)n1` [TH-2-31, N^2,N^3-dicyclohexyl-5-(3-methyl-1,2,4-oxadiazol-5-yl)pyridine-2,3-diamine]: the half-life at 20 µM was greater than 2 h in data set [1] (setting [4]), greater than 2 h in data set [1] (setting [5]), greater than 2 h in data set [1] (setting [6]) and 0.5 to 1 h in data set [1] (setting [3]). In data set [1], the “microsomal stability / half-life, in words” value is on record as “the most stable; also recorded: half-life greater than two hours”. For the same compound, in data set [2], the “tolerability of chronic administration” value is reported as “no detectable weight loss induced by either compound”. Moreover, the “protection against body weight loss” value in data set [2] (PO administration, 20 mg/kg) is “didn't show this protective effect”.

Consider `CCC(CC)Nc1cc(-c2nc(C)no2)cnc1NC1CCCCC1` [TH-4-55-2, N^2-cyclohexyl-5-(3-methyl-1,2,4-oxadiazol-5-yl)-N^3-(pentan-3-yl)pyridine-2,3-diamine], for which the half-life at 20 µM is greater than 2 h in data set [1] (setting [4]), greater than 2 h in data set [1] (setting [5]), greater than 2 h in data set [1] (setting [6]) and greater than 1 h in data set [1] (setting [3]). For the same compound, the “microsomal stability / half-life, in words” value in data set [1] was “half-life greater than two hours”. The “tolerability of chronic administration” value in data set [2] is “well-tolerated in a 30-day toxicity study in wild-type mice and symptomatic R6/2 HD mice; also recorded: non-toxic and well-tolerated by R6/2 mice”. The “deaths after 30 days” value was “one TH-4-55-2-treated mouse died” in data set [2] (IP administration) and “one TH-4-55-2-treated mouse died; also recorded: one TH-4-55-2-treated mice died” in data set [2] (PO administration, 20 mg/kg). The “protection against body weight loss” value in data set [2] (PO administration, 20 mg/kg) is on record as “protected from body weight loss over time; also recorded: showed protection against HD-related weight loss; also recorded: showed a significant protective effect; also recorded: appeared to have no loss in body weight during the injection series”.

In the case of `Cc1noc(-c2cnc(NC3CCCC3)c(NC3CCCC3)c2)n1` [TH-4-67, N^2,N^3-dicyclopentyl-5-(3-methyl-1,2,4-oxadiazol-5-yl)pyridine-2,3-diamine], the half-life at 20 µM is greater than 2 h in data set [1] (setting [4]), greater than 2 h in data set [1] (setting [5]), greater than 2 h in data set [1] (setting [6]) and greater than 1 h in data set [1] (setting [3]). Further, in data set [1], the “microsomal stability / half-life, in words” value is on record as “half-life greater than two hours”. For the same compound, in data set [2], the “tolerability of chronic administration” value is “no detectable weight loss induced by either compound”. For the same compound, the “protection against body weight loss” value in data set [2] (PO administration, 20 mg/kg) is listed as “didn't show this protective effect”.

Values taken from US20240156790A1, “COMPOUNDS, COMPOSITIONS, AND METHODS FOR MODULATING FERROPTOSIS AND TREATING EXCITOTOXIC DISORDERS” (THE TRUSTEES OF COLUMBIA UNIVERSITY IN THE CITY OF NEW YORK, priority 2018, published 2024).
